Columns and labels:
DU-145 = assay: Growth inhibition of human DU-145 cells measured for 72 hrs by SRB assay; format: functional
HT-29 = assay: Growth inhibition of human HT-29 cells measured for 72 hrs by SRB assay; format: functional
HeLa = assay: Cytotoxicity against human HeLa cells assessed as reduction in cell viability measured for 48 hrs by crystal violet staining based analysis; format: functional
[1] = molecular target: ATP-dependent translocase ABCB1 (Homo sapiens, UniProt P08183); assay: Inhibition of p-glycoprotein (unknown origin) expressed in MDCK-MDR1 cells; format: cell-based
ATP-dependent translocase ABCB1, sequence (P08183 whole entry): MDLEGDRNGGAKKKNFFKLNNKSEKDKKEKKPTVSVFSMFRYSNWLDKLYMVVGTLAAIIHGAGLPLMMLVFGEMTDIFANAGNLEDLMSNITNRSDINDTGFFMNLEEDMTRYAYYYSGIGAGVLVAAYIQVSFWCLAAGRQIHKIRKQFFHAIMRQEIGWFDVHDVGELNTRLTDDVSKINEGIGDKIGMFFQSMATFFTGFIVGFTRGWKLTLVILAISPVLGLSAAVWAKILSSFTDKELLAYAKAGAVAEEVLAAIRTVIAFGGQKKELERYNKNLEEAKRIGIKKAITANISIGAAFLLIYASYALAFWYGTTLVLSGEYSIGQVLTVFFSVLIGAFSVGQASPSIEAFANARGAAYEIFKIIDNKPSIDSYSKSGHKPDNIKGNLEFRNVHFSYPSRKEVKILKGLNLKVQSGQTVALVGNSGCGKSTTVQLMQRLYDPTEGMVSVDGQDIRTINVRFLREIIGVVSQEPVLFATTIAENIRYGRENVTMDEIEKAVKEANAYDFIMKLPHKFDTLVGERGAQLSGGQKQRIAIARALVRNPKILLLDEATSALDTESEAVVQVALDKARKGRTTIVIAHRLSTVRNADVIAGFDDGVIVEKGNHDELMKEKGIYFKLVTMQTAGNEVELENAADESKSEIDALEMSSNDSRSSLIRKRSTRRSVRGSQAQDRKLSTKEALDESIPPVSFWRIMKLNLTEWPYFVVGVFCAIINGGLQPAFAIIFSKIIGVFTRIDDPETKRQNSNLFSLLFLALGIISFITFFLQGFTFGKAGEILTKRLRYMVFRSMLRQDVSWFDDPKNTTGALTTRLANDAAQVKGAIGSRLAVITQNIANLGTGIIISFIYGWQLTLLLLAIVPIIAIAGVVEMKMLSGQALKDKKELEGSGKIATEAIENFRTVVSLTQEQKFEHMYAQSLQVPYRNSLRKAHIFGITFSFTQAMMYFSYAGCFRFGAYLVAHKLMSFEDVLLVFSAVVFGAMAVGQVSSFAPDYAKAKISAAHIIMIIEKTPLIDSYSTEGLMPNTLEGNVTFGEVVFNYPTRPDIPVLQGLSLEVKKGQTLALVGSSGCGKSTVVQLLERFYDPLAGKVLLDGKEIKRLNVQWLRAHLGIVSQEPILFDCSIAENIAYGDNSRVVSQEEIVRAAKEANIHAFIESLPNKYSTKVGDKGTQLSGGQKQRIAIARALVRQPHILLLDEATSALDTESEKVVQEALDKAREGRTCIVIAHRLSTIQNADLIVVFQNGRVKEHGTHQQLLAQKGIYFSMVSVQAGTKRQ

MCF7 = assay: Antiproliferative activity against human MCF7 cells assessed as reduction in cell growth incubated for 48 hrs by MTT assay; format: functional, cell-based; details: MCF7, 48 h
Acetylcholinesterase = Acetylcholinesterase (Homo sapiens, UniProt P22303); assay: Inhibition of human recombinant AChE using acetylthiocholine iodide substrate incubated for 5 mins by Ellman's spectrophotometric analysis
Acetylcholinesterase, sequence (P22303 whole entry): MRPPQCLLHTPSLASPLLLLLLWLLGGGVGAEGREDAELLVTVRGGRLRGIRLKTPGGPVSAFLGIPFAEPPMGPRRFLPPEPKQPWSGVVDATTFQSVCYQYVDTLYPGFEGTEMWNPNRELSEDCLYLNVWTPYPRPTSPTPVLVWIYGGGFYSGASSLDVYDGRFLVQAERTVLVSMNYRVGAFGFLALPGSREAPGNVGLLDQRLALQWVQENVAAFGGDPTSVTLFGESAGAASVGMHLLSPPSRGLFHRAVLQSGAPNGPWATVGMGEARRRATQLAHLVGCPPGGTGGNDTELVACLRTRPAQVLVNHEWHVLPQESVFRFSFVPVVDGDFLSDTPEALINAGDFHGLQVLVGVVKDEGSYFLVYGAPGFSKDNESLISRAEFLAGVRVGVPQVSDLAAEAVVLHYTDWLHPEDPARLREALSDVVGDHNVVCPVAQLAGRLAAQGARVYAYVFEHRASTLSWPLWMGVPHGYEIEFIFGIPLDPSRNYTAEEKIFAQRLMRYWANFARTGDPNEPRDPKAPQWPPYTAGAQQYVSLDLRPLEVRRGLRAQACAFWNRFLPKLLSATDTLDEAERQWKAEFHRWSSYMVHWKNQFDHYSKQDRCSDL

With COc1cc(-c2c3c4cc(OC)c(O)cc4oc(=O)c3n3ccc4cc(O)c(OC)cc4c23)ccc1O [LAMELLARIN D] the GI50 (DU-145) was 10.9 nM and the GI50 (HT-29) was 3000 nM.

COc1cc(-c2c3c4cc(OC)c(O)cc4[nH]c(=O)c3n3ccc4cc(O)c(OC)cc4c23)ccc1O showed an IC50 (HeLa) of 317 nM.

For CCOc1cc2c(cc1OCC)-c1c(-c3ccc(F)cc3)c(/C=N/c3ccc(O)cc3)c(-c3ccccc3)n1CC2, the IC50 [1] was 1010 nM.

With Cc1ccc(-c2nc3c(=O)oc4ccccc4c3c3ccoc23)cc1 the IC50 (MCF7) was 6830 nM.

In the case of COc1cc(-c2c3c4cc(OC)c(OC(=O)[C@H](N)C(C)C)cc4oc(=O)c3n3ccc4cc(OC(=O)[C@@H](N)C(C)C)c(OC)cc4c23)ccc1OC(=O)[C@@H](N)C(C)C, the GI50 (DU-145) is reported as 10.8 nM.

CCOc1ccc(-c2c(C=O)c(-c3ccco3)n3c2-c2cc(OCC)c(OCC)cc2CC3)cc1OCC gave an IC50 [1] of 190 nM.

For CCOc1cc2c(cc1OCC)-c1c(-c3ccc(Cl)cc3)c(/C=N/c3ccc(/N=C/c4c(-c5ccc(Cl)cc5)c5n(c4-c4ccccc4)CCc4cc(OC)c(OC)cc4-5)cc3)c(-c3ccccc3)n1CC2, the IC50 (Acetylcholinesterase) was 4690 nM.

Work on COCCOCCOCC(=O)Oc1ccc(-c2c3c4cc(OC)c(OC(=O)COCCOCCOC)cc4oc(=O)c3n3ccc4cc(O)c(OC)cc4c23)cc1OC yielded a GI50 (HT-29) of 1280 nM.
